Earlier results in patent publication US20160243144A1 (Oakdene Holdings LLC, priority 2015, published 2016).

What was measured:
[1] = given orally
[2] = particularly in patients with HE

In the case of `OC[C@H]1O[C@@H](O[C@@H]2[C@@H](CO)OC(O)(CO)[C@H]2O)[C@H](O)[C@@H](O)[C@H]1O` (mixture of isomers) [lactulose], the “time by which urinary excretion is essentially complete” value [1] is given as ≤ 24 h and the urinary excretion [1] is given as ≤ 3%.
For `CO[C@H]1/C=C/O[C@@]2(C)Oc3c(C)c(O)c4c(O)c(c5c(nc6cc(C)ccn65)c4c3C2=O)NC(=O)/C(C)=C\C=C\[C@H](C)[C@H](O)[C@@H](C)[C@@H](O)[C@@H](C)[C@H](OC(C)=O)[C@@H]1C` [Rifaximin], the “intra-subject variability in Cmax or AUC” value [2] is listed as ≥ 30 % CV.
